Results: patent US4139629A, “Pseudomonic acid amide antibacterial compounds” (priority 1976, dated 1979)
In brackets after ≈: the same amount, converted by molar mass. Where two headings read alike, the source gives them in different places.

Assays:
N.gonorrhoeae = test: Activity against N.gonorrhoeae, MIC by serial dilution in 10% horse blood agar; format: cell-based; conditions: Neisseria gonorrhoeae, 24 h
Method: (§1) *Serial dilution in 10% horse blood agar. Incubated in a partial atmosphere of CO2 for 24 hours at 37° C. Inoculated with one drop (0.001ml) of an overnight cell suspension.

Oxford Staph. = test: MIC by serial dilution in 10% horse blood agar (Table 2); format: cell-based; conditions: 24 hours at 37° C.
Method: as §1

Staph. aureus 1517 = test: Antibacterial activity against Gram-positive organisms (MIC); format: cell-based; conditions: Staphylococcus aureus
B. Subtilis = test: as above; format: cell-based; conditions: Bacillus subtilis
Staph. aureus Oxford = test: as above; format: cell-based; conditions: Staphylococcus aureus
Strep. faecalis = test: as above; format: cell-based; conditions: Enterococcus faecalis
Staph. aureus Russell = test: as above; format: cell-based; conditions: Staphylococcus aureus
[1] = test system: mycoplasmas from human and veterinary sources; test: Antimycoplasmal activity in vitro (summary); format: cell-based, mycoplasma; conditions: in words
Method: (§2) The method used to test for antimycoplasmal activity was as follows:
(§3) The minimal inhibitory concentration (MIC) of the pseudomonic acid amides was determined in Microtitre plates, by a modification of the metabolic-inhibition test (Taylor-Robinson, 1967). The compounds were serially diluted in sterile de-ionised water to give a range of concentrations from 250-0.5 μg/ml. Mycoplasma broth containing 1% (w/v) of glucose and 0.005% (w/v) of phenol red, was added at a strength to compensate for its dilution by the aqueous drug solution. Approximately 10^4 colony forming units of mycoplasma were added to each concentration of drug. Drug-free infected, non-infected and pH control wells were included on each plate. Plates were sealed with cellophane tape and incubated at 37° C. for 7 days. The MIC was the lowest concentration of compound that prevented a colour change in the mycoplasma broth caused by the metabolism of glucose by the mycoplasmas.

M. fermentans MWKL4 = test: Antimycoplasmal MIC, metabolic-inhibition test in Microtitre plates; format: cell-based; conditions: Mycoplasmopsis fermentans, 168 h; M. fermentans MWKL4, source man; 37° C. for 7 days
Method: as §2, §3

M. suipneumoniae (Laber) = test: as above; format: cell-based; conditions: Mesomycoplasma hyopneumoniae, 168 h, source pig, 37° C. for 7 days
Method: as §2, §3

M. pneumoniae 429 a = test: as above; format: cell-based; conditions: Mycoplasmoides pneumoniae, 168 h, source man, 37° C. for 7 days
Method: as §2, §3

M. pulmonis `JB` = test: as above; format: cell-based; conditions: Mycoplasmopsis pulmonis, 168 h, source mouse, 37° C. for 7 days
Method: as §2, §3

M. dispar H 225 = test: as above; format: cell-based; conditions: 168 h; M. dispar H 225, source cattle; 37° C. for 7 days
Method: as §2, §3

M. synoviae ATCC 25204 = test: as above; format: cell-based; conditions: Mycoplasmopsis synoviae, ATCC25204, 168 h; M. synoviae ATCC 25204, source chicken; 37° C. for 7 days
Method: as §2, §3

M. agalactiae ATCC 25025 = test: as above; format: cell-based; conditions: Mycoplasmopsis agalactiae, ATCC25025, 168 h; M. agalactiae ATCC 25025, source cattle; 37° C. for 7 days
Method: as §2, §3

M. gallisepticum S6 = test: as above; format: cell-based; conditions: Mycoplasmoides gallisepticum, 168 h; M. gallisepticum S6, source chicken; 37° C. for 7 days
Method: as §2, §3

β-Haemolytic Strep. CN10 = test: Antibacterial activity against Gram-positive organisms (MIC); format: cell-based
[2] = Serum binding by ultrafiltration, filtrate assayed by hole-in-plate method; format: in vitro ADME
Method: The degree of binding to human serum of the compounds of Examples 1 and 2 compared with that of pseudomonic acid was determined by the following procedure:
Test samples were mixed with human serum and placed in visking tubing. Serum binding was determined by ultrafiltration, the filtrate obtained being assayed by a hole-in-plate method using Bacillus subtilis ATCC 6633 against standards prepared in 0.05M pH7.0 phosphate buffer.

[3] = strain 69, 24 hours at 37° C., read-out: M.I.C.
[4] = strain 70, 24 hours at 37° C., read-out: M.I.C.
[5] = strain 77, 24 hours at 37° C., read-out: M.I.C.
[6] = strain 82, 24 hours at 37° C., read-out: M.I.C.
[7] = strain 87, 24 hours at 37° C., read-out: M.I.C.
[8] = strain 2176, 24 hours at 37° C., read-out: M.I.C.
[9] = strain AR 229, 24 hours at 37° C., read-out: M.I.C.
[10] = strain H2057, 24 hours at 37° C., read-out: M.I.C.
[11] = strain VD 79, 24 hours at 37° C., read-out: M.I.C.
[12] = strain VDRL 67, 24 hours at 37° C., read-out: M.I.C.
[13] = strain WHO VII, 24 hours at 37° C., read-out: M.I.C.

Compound	MIC (Oxford Staph.)	MIC (Staph. aureus 1517)	MIC (N.gonorrhoeae; [3])	MIC (N.gonorrhoeae; [4])	MIC (N.gonorrhoeae; [5])	MIC (N.gonorrhoeae; [6])	MIC (N.gonorrhoeae; [7])	MIC (N.gonorrhoeae; [8])	MIC (N.gonorrhoeae; [9])	MIC (N.gonorrhoeae; [10])	MIC (N.gonorrhoeae; [11])	MIC (N.gonorrhoeae; [12])	MIC (N.gonorrhoeae; [13])	MIC (B. Subtilis)	MIC (Staph. aureus Oxford)	MIC (Strep. faecalis)	MIC (Staph. aureus Russell)	antimycoplasmal activity in vitro [1]	MIC (M. fermentans MWKL4)	MIC (M. suipneumoniae (Laber))	other results
CC1(C)S[C@@H]2[C@H](NC(=O)Cc3ccccc3)C(=O)N2[C@H]1C(=O)O [Benzyl Penicillin, benzylpenicillin, reference compound]	0.02 µg/mL (≈ 0.0598 µM)																				MIC (N.gonorrhoeae; strain 69, 24 hours at 37° C.): 0.1 µg/mL (≈ 0.299 µM); MIC (N.gonorrhoeae; strain 70, 24 hours at 37° C.): 0.1 µg/mL (≈ 0.299 µM); MIC (N.gonorrhoeae; strain 72, 24 hours at 37° C.): 0.2 µg/mL (≈ 0.598 µM); MIC (N.gonorrhoeae; strain 77, 24 hours at 37° C.): 0.1 µg/mL (≈ 0.299 µM); MIC (N.gonorrhoeae; strain 82, 24 hours at 37° C.): 0.5 µg/mL (≈ 1.5 µM); MIC (N.gonorrhoeae; strain 87, 24 hours at 37° C.): 0.01 µg/mL (≈ 0.0299 µM); MIC (N.gonorrhoeae; strain 2176, 24 hours at 37° C.): 0.2 µg/mL (≈ 0.598 µM); MIC (N.gonorrhoeae; strain AR 229, 24 hours at 37° C.): 1 µg/mL (≈ 2.99 µM); MIC (N.gonorrhoeae; strain H2057, 24 hours at 37° C.): 0.005 µg/mL (≈ 0.015 µM); MIC (N.gonorrhoeae; strain VD 79, 24 hours at 37° C.): 0.2 µg/mL (≈ 0.598 µM); MIC (N.gonorrhoeae; strain VDRL 67, 24 hours at 37° C.): 0.05 µg/mL (≈ 0.15 µM); MIC (N.gonorrhoeae; strain WHO VII, 24 hours at 37° C.): 0.005 µg/mL (≈ 0.015 µM)
CNC(=O)CCCCCCCCOC(=O)/C=C(\C)CC1OCC(CC2OC2C(C)C(C)O)C(O)C1O (stereo not drawn) [Example 1, Pseudomonic acid N-methylamide]	0.05 µg/mL (≈ 0.0973 µM)	1.25 µg/mL (≈ 2.43 µM)	0.002 µg/mL (≈ 0.00389 µM)	0.005 µg/mL (≈ 0.00973 µM)	0.005 µg/mL (≈ 0.00973 µM)	0.05 µg/mL (≈ 0.0973 µM)	0.01 µg/mL (≈ 0.0195 µM)	0.02 µg/mL (≈ 0.0389 µM)	0.05 µg/mL (≈ 0.0973 µM)	0.005 µg/mL (≈ 0.00973 µM)	0.02 µg/mL (≈ 0.0389 µM)	0.002 µg/mL (≈ 0.00389 µM)	0.005 µg/mL (≈ 0.00973 µM)	0.25 µg/mL (≈ 0.487 µM)	0.5 µg/mL (≈ 0.973 µM)	125 µg/mL (≈ 243 µM)	1.25 µg/mL (≈ 2.43 µM)				
C/C(=C\C(=O)OCCCCCCCCC(N)=O)CC1OCC(CC2OC2C(C)C(C)O)C(O)C1O (stereo not drawn) [Example 2, Pseudomonic Acid Amide]	0.05 µg/mL (≈ 0.1 µM)	2.5 µg/mL (≈ 5 µM)	0.002 µg/mL (≈ 0.004 µM)	0.005 µg/mL (≈ 0.01 µM)	0.02 µg/mL (≈ 0.04 µM)	0.05 µg/mL (≈ 0.1 µM)	0.005 µg/mL (≈ 0.01 µM)	0.02 µg/mL (≈ 0.04 µM)	0.05 µg/mL (≈ 0.1 µM)	0.005 µg/mL (≈ 0.01 µM)	0.02 µg/mL (≈ 0.04 µM)	0.002 µg/mL (≈ 0.004 µM)	0.002 µg/mL (≈ 0.004 µM)	0.25 µg/mL (≈ 0.5 µM)	0.5 µg/mL (≈ 1 µM)	100 µg/mL (≈ 200 µM)	1 µg/mL (≈ 2 µM)	good antimycoplasmal activity	< 0.5 µg/mL	< 0.5 µg/mL	MIC (M. pneumoniae 429 a): 250 µg/mL (≈ 500 µM); MIC (M. pulmonis `JB`): < 0.5 µg/mL; MIC (M. dispar H 225): < 0.5 µg/mL; MIC (M. synoviae ATCC 25204): < 0.5 µg/mL; MIC (M. agalactiae ATCC 25025): < 0.5 µg/mL; MIC (M. gallisepticum S6): < 0.5 µg/mL; MIC (N.gonorrhoeae; strain 72, 24 hours at 37° C., read-out: M.I.C.): 0.01 µg/mL (≈ 0.02 µM); MIC (β-Haemolytic Strep. CN10): 0.1 µg/mL (≈ 0.2 µM)
C/C(=C\C(=O)OCCCCCCCCC(=O)N(C)C)CC1OCC(CC2OC2C(C)C(C)O)C(O)C1O (stereo not drawn) [Example 3, Pseudomonic acid N,N-dimethylamide]																		good antimycoplasmal activity	< 0.5 µg/mL	3.9 µg/mL (≈ 7.39 µM)	MIC (M. pneumoniae 429 a): 250 µg/mL (≈ 474 µM); MIC (M. pulmonis `JB`): < 0.5 µg/mL; MIC (M. dispar H 225): < 0.5 µg/mL; MIC (M. synoviae ATCC 25204): < 0.5 µg/mL; MIC (M. agalactiae ATCC 25025): < 0.5 µg/mL; MIC (M. gallisepticum S6): < 0.5 µg/mL
C/C(=C\C(=O)OCCCCCCCCC(=O)O)C[C@@H]1OC[C@H](C[C@@H]2O[C@H]2[C@@H](C)[C@H](C)O)[C@@H](O)[C@H]1O [Pseudomonic acid]																					% unbound in human serum [2]: 6.8%; fraction unbound ([2]; human, serum): 0.066
